Assays:
Type in all cases: cell-based
[1] = test system: Staphylococcus epidermidis biofilm; experiment: Checkerboard combination assay, biofilm eradication; conditions: S. epidermidis biofilm eradication; natural product alone; mean MBEC
Protocol: (§1) The effect of the combination of ATBs with NPs on the preformed biofilm was evaluated by determining the FICI, as described above for biofilm formation, with slight modifications. After biofilm formation for 24 h, the plate was gently emptied and washed three times with PBS. Then, 50 µL of ATBs and 50 µL of NPs were introduced to the plate. The final concentration ranges from 0.0625 to 128 µg/mL and from 4 to 512 µg/mL for ATBs and NPs, respectively, and is incubated at 37°C for 24 h. After incubation, the medium was gently removed, and the plate was washed three times with PBS. At the end of the incubation time, the MTT reduction assay was performed, and the MBEC was determined. To assess the effect of the combination, the FICI was calculated and interpreted as described above.

[2] = test system: Staphylococcus saprophyticus biofilm; experiment: as above; conditions: S. saprophyticus biofilm eradication; natural product alone; mean MBEC
Protocol: as §1

Raw 264.7 macrophages = experiment: Cytotoxicity, MTT assay; conditions: Mus musculus, RAW264.7, 48 h, Raw 264.7, MTT, read-out: IC50
Protocol: (§2) Two cell lines, including Raw 264.7 macrophages and the urinary epithelial cell line UROtsa obtained from the American Type Culture Collection (Rockville, MD, USA), were used. They were cultured in Dulbecco's modified Eagle's medium (DMEM), which was supplemented with 10% fetal bovine serum (FBS) and 1% penicillin, streptomycin, and fungizone (PSF). They were then grown at 37°C in a humidified environment containing 5% CO2.
(§3) The cytotoxicity of the selected synergistic combinations, as well as the individual constituents of combinations, against the abovementioned cell lines was performed by the MTT assay as previously described. Briefly, cells from each line were harvested in the logarithmic phase using trypsin (0.05% trypsin, 0.02% EDTA in PBS). Cell suspension was diluted with an appropriate growth medium to obtain a cell density of 10^4 cells/well. A 100 µL aliquot of each suspension was seeded into 96-well cell culture plates and incubated at 37°C in an atmosphere of 5% CO2 and 95% relative humidity. After 24 h of incubation, 100 µL of samples (ATBs and NPs) at concentrations varying from 0.01, 0.1, 1, 10, 100, and 1000, as well as the synergistic combinations (C1 to C5), was added to the wells containing the cells. Doxorubicin was used as a positive control. Appropriate controls with an equivalent concentration of DMSO were also included. Plates were incubated for 48 h, then the medium in each well was aspirated, and MTT solution (2 mg/mL in PBS) was diluted 1:10 with fresh medium and added to each well, and the plates were further incubated at 37°C for 4 h. Absorbance was measured on a BioTek microplate reader at 570 nm. The percentage of cell viability was calculated by comparing treated and untreated cells using the equation [39]:(3) cell viability %=ODtest/ODcontrol×100.
(§4) Then, the IC50 values of the samples having shown at least 50% inhibition were calculated by plotting the percentage of inhibition against the concentrations.

[3] = test system: UROtsa urinary epithelial cells; experiment: Cytotoxicity, MTT assay; conditions: Epithelial cell, 48 h, read-out: IC50
Protocol: as §2, §3, §4

Row | Compound | MBEC Alone NPs [1] [µg/mL] | MBEC Alone NPs [2] [µg/mL] | IC50 (Raw 264.7 macrophages) [µg/mL] | IC50 [3] [µg/mL]
1 | O=c1c(O)c(-c2ccc(O)c(O)c2)oc2cc(O)cc(O)c12 [Quer] | 170.66 | 256 |  | 
2 | COc1cccc2c1C(=O)c1c(O)c3c(c(O)c1C2=O)C[C@@](O)(C(=O)CO)C[C@@H]3O[C@H]1C[C@H](N)[C@H](O)[C@H](C)O1 [Doxorubicin, doxorubicin] |  |  | 1.26 | 1.58

From article PMC12339163, “Combining Plant Bioactives With Antibiotics for Enhanced Antibiofilm Activity Against Uropathogenic Staphylococcus spp. and Cytotoxicity Evaluation” (Advances in Pharmacological and Pharmaceutical Sciences, 2025)
